In patent US20250235545A1, “POLYPEPTIDE CONJUGATE AND USE THEREOF” (SHANGHAI CHIXI BIOMEDICAL TECHNOLOGY CO., LTD, priority 2024, published 2025):
Converted amounts (≈) assume the structure as drawn. Like-named read-outs stand apart in the source and are kept apart here. Where a SMILES comes first, the peptide text is derived from it. The star is where a group is joined. X2 = CCCCN(CCc1c2c(nc3ccccc13)-c1cc3c(c(=O)n1C2)COC(=O)[C@]3(O)CC)*; X4 = CCCN(CCc1c2c(nc3ccccc13)-c1cc3c(c(=O)n1C2)COC(=O)[C@]3(O)CC)*; Propanoyl(3-maleimido) = O=C1C=CC(=O)N1CCC(=O)*; PEG6 = NCCOCCOCCOCCOCCOCCOCCC(=O)O

Experiments:
[1] = system: A2780 ovarian cancer tumor model; assay: Efficacy in animal model of A2780 ovarian cancer, 30 mg/kg once a week for two weeks (Example 41); type: in vivo, BALB/c mice
Experimental: Test objective: To further compare the antitumor efficacy of different polypeptide Linkers in an animal tumor model of A2780 ovarian cancer.
Test drug: Polypeptide conjugate and normal saline control group.
8×10^6 corresponding cells were injected into right axillas of nude mice subcutaneously. […] The negative control group was administered normal saline. Administration was performed once a week for two weeks.

[2] = Homogenate activation efficiency, heart tissue (Examples 28, 37); type: in vitro ADME; settings: pH 5.0, 37° C., 2 h; Table 10
[3] = system: A2780 (ovarian cancer); assay: cells; type: cell-based; settings: CCK8, 48 h; Table 6
How it was run: (§1)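 Cells seeded at 5,000 cells/well in RPMI1640 or DMEM high-glucose with 10% FBS and 1 mM sodium pyruvate, exposed to graded drug concentrations for 48 h at 37° C., 5% CO2; 0.1% DMSO controls. CCK8 added for ~2 h, absorbance 450 nm; survival rates and IC50 calculated.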

[4] = system: SKBR3 (breast cancer tissue); assay: cells; type: cell-based; settings: CCK8, 48 h; Table 6
How it was run: as §1

[5] = system: SJSA-1 (sarcoma tissue); assay: cells; type: cell-based; settings: CCK8, 48 h; Table 6
How it was run: as §1

[6] = system: A549 (non-small cell lung cancer); assay: cells; type: cell-based; settings: CCK8, 48 h; Table 6
How it was run: as §1

[7] = system: colo320 colorectal cancer tumor model
How it was run: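 Female BALB/c nude mice, 6–8 weeks old, received 7.5×10^6 colo320 cells subcutaneously in the right chest. Once tumors reached at least 120 mm^3 they were randomized three per group. Treatment with test agents or saline control was given once weekly for four weeks.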

[8] = Tumor homogenate activation efficiency, non-small cell lung cancer tissue (Examples 28, 37); type: in vitro ADME; settings: pH 5.0, 37° C., 2 h; Table 10
How it was run: (§2)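 Activation is reported as the fraction of free Belotecan peak area among all Belotecan-bearing peaks by HPLC. The conjugate (1 mg/ml) reacts with 100 μg homogenate for 2 h at 37° C in MES buffer, pH 5.0.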

[9] = Tumor homogenate activation efficiency, ovarian cancer tissue (Examples 28, 37); type: in vitro ADME; settings: pH 5.0, 37° C., 2 h; Table 10
How it was run: as §2

[10] = Tumor homogenate activation efficiency, colorectal cancer tissue (Example 37); type: in vitro ADME; settings: pH 5.0, 37° C., 2 h; Table 10
Experimental: Buffer preparation: 50 mM PH buffer (MES), 250 mM NaCl, pH adjusted to 5.0 with 0.5 M of sodium hydroxide.
The polypeptide conjugate was prepared into a 1 mg/ml solution with pH 5.0 buffer, 100 μg of tumor tissue homogenate was added, (the tumor tissue homogenate was the homogenate of tumor tissues prepared with a Jingxin F6/10 handheld homogenizer), and the solution was placed at 37° C. for 2 h. The tumor tissue homogenate could effectively activate the polypeptide conjugate and release Belotecan, and the activation efficiencies of the drugs in tumor tissues were compared by HPLC allowing determination of a decrease in the compounds and an increase in Belotecan:
Release percentage=peak area of Belotecan/total peak area of Belotecan and all other Belotecan-containing compounds

[11] = Tumor homogenate activation efficiency, sarcoma tissue (Examples 28, 37); type: in vitro ADME; settings: pH 5.0, 37° C., 2 h; Table 10
How it was run: as §2

[12] = Tumor homogenate activation efficiency, breast cancer tissue (Examples 28, 37); type: in vitro ADME; settings: pH 5.0, 37° C., 2 h; Table 10
How it was run: as §2

[13] = 15 mg/kg once a week for four weeks, Table 8
[14] = 45 mg/kg once a week for four weeks, Table 8
[15] = Table 14 (Example 43), dose 45 mg/kg, once a week for four weeks, BALB/c mice

Compound	A2780 (ovarian cancer) mean tumor volume (mm^3) Day 1 [1]	A2780 (ovarian cancer) mean tumor volume (mm^3) Day 4 [1]	A2780 (ovarian cancer) mean tumor volume (mm^3) Day 7 [1]	A2780 (ovarian cancer) mean tumor volume (mm^3) Day 10 [1]	A2780 (ovarian cancer) mean tumor volume (mm^3) Day 14 [1]	Growth rate (%) of A2780 (ovarian cancer) on Day 14 [1]	Mouse weight (%) on Day 14 [1]	Percentage of release efficiency (%) Heart tissue [2]	IC50 Ovarian cancer tissue (A2780) [3]	IC50 Breast cancer tissue (SKBR3) [4]	IC50 Sarcoma tissue (SJSA-1) [5]	IC50 Non-small cell lung cancer tissue (A549) [6]	Mouse weight (%) [7, 13]	colo320 (colorectal cancer cell) growth rate (%) [7, 13]	colo320 (colorectal cancer cell) mean tumor volume (mm^3) [7, 13]	Mouse weight (%) [7, 14]	colo320 (colorectal cancer cell) growth rate (%) [7, 14]	colo320 (colorectal cancer cell) mean tumor volume (mm^3) [7, 14]	Percentage of release efficiency (%) Non-small cell lung cancer tissue (A549) [8]	Percentage of release efficiency (%) Ovarian cancer tissue (A2780) [9]	also measured
CCCCN(CCc1c2c(nc3ccccc13)-c1cc3c(c(=O)n1C2)COC(=O)[C@]3(O)CC)C(=O)[C@H](CC(C)C)NC(=O)[C@H](CC(N)=O)NC(=O)[C@H](C)NC(=O)[C@H](C)NC(=O)CCOCCOCCOCCOCCOCCOCCNC(=O)CCN1C(=O)C=CC1=O [MI-6PEG-AANL-D4] ({Propanoyl(3-maleimido)-PEG6}-AANL-X2)	133.89 mm^3	309.51 mm^3	703.24 mm^3	894.45 mm^3	1345.03 mm^3	1004.58%	+14.5%	4%	2.47 µg/mL (≈ 1.89 µM)	3.94 µg/mL (≈ 3.02 µM)	2.94 µg/mL (≈ 2.26 µM)	3.72 µg/mL (≈ 2.85 µM)	+17%	1081.25%	1271.1 mm^3	+18%	832.33%	978.4 mm^3	77.7%	66.7%	Mouse weight (%) [7, 15]: +18%; colo320 (colorectal cancer cell) growth rate (%) [7, 15]: 832.33%; colo320 (colorectal cancer cell) mean tumor volume (mm^3) [7, 15]: 978.4 mm^3; Percentage of release efficiency (%) Colorectal cancer tissue (colo320) [10]: 76.5%; Percentage of release efficiency (%) Sarcoma tissue (SJSA1) [11]: 81.2%; Percentage of release efficiency (%) Breast cancer tissue (SKBR3) [12]: 75.3%
CCCN(CCc1c2c(nc3ccccc13)-c1cc3c(c(=O)n1C2)COC(=O)[C@]3(O)CC)C(=O)[C@H](CC(C)C)NC(=O)[C@H](CC(N)=O)NC(=O)[C@H](C)NC(=O)[C@H](C)NC(=O)CCOCCOCCOCCOCCOCCOCCNC(=O)CCN1C(=O)C=CC1=O [MI-6PEG-AANL-D3] ({Propanoyl(3-maleimido)-PEG6}-AANL-X4)	134.07 mm^3	387.76 mm^3	768.59 mm^3	998.38 mm^3	1508.23 mm^3	1124.96%	+12.2%	3.9%	1.15 µg/mL (≈ 0.892 µM)	2.56 µg/mL (≈ 1.99 µM)	1.52 µg/mL (≈ 1.18 µM)	1.87 µg/mL (≈ 1.45 µM)	+18%	1088.75%	1279.8 mm^3	+18%	641.35%	753.9 mm^3	66.8%	69.5%	Percentage of release efficiency (%) Colorectal cancer tissue (colo320) [10]: 71.6%; Percentage of release efficiency (%) Sarcoma tissue (SJSA1) [11]: 90%; Percentage of release efficiency (%) Breast cancer tissue (SKBR3) [12]: 67.9%
